# Measurements taken from article PMC10331583, “Control of fibrosis with enhanced safety via asymmetric inhibition of prolyl‐tRNA synthetase 1” (EMBO Molecular Medicine, 2023).
# “And” between values parts separate entries of the source, which are not always exact repeats. Equal entries are not always repeated. Where two headings read alike, the source gives them in different places.
# Legend:
# [1] = system: WI‐26 VA4 cells; assay: Collagen ELISA (secreted pro‐collagen I)
# [2] = system: TNT Quick Coupled Transcription/Translation System (luciferase synthesis); format: biochemical
# [3] = system: WI‐26 VA4 cells stably expressing PARS1 FA/EA/RL mutant; assay: Collagen ELISA in cells stably expressing PARS1 mutant; conditions: for Collagen level, average: average of 4 experiments; for Collagen level, single replicates: replicates of Experiments #1-#4
# [4] = log(inhibitor) vs. response, variable slope (four parameters), concentration in nM
# [5] = WI-26 VA4 Flag-PARS1 FA/EA/RL, 30 nM
# [6] = WI-26 VA4 Flag-PARS1 FA/EA/RL, 100 nM
# [7] = WI-26 VA4 Flag-PARS1 FA/EA/RL, 300 nM
# [8] = WI-26 VA4 Flag-PARS1 FA/EA/RL, 1000 nM
# [9] = WI-26 VA4 Flag-PARS1 FA/EA/RL, 3000 nM
# [10] = WI-26 VA4 Flag-PARS1 FA/EA/RL, 10000 nM
# [11] = WI-26 VA4 Flag-PARS1 FA/EA/RL, 30000 nM
# [12] = WI-26 VA4 Flag-PARS1 FA/EA/RL, 100000 nM
# [13] = WI-26 VA4 Flag-PARS1 FA/EA/RL, 300000 nM
structure (smiles),measurement,setting,value
O[C@H]1CCCN[C@@H]1CCCn1cnc2c(Cl)c(Cl)ccc21 [DWN12088],activity at 3 µM,"[1]; Homo sapiens, WI26VA4, read-out: Collagen, % of control, average, 3000 nM, average",37.7%
same,activity at 10 µM,"[1]; Homo sapiens, WI26VA4, read-out: Collagen, % of control, average, 10000 nM, average",15%
same,activity at 30 µM,"[1]; Homo sapiens, WI26VA4, read-out: Collagen, % of control, average, 30000 nM, average",5.52%
same,activity at 100 µM,"[1]; Homo sapiens, WI26VA4, read-out: Collagen, % of control, average, 100000 nM, average",4.05%
same,activity at 300 µM,"[1]; Homo sapiens, WI26VA4, read-out: Collagen, % of control, average, 300000 nM, average",4.51%
same,activity at 0.03 µM,"[1]; Homo sapiens, WI26VA4, read-out: Efficacy, % of control, average, 30 nM",102%
same,activity at 0.1 µM,"[1]; Homo sapiens, WI26VA4, read-out: Efficacy, % of control, average, 100 nM",99.4%
same,activity at 0.3 µM,"[1]; Homo sapiens, WI26VA4, read-out: Efficacy, % of control, average, 300 nM",107%
same,activity at 1 µM,"[1]; Homo sapiens, WI26VA4, read-out: Efficacy, % of control, average, 1000 nM",82.3%
same,activity at 3 µM,"[1]; Homo sapiens, WI26VA4, read-out: Efficacy, % of control, average, 3000 nM",35.4%
same,activity at 10 µM,"[1]; Homo sapiens, WI26VA4, read-out: Efficacy, % of control, average, 10000 nM",11.9%
same,activity at 30 µM,"[1]; Homo sapiens, WI26VA4, read-out: Efficacy, % of control, average, 30000 nM",3.71%
same,activity at 100 µM,"[1]; Homo sapiens, WI26VA4, read-out: Efficacy, % of control, average, 100000 nM",2.52%
same,activity at 0.03 µM,"[1]; Homo sapiens, WI26VA4, read-out: Efficacy, % of control, single replicate, 30 nM",113%
same,activity at 0.1 µM,"[1]; Homo sapiens, WI26VA4, read-out: Efficacy, % of control, single replicate, 100 nM",108%
same,activity at 0.3 µM,"[1]; Homo sapiens, WI26VA4, read-out: Efficacy, % of control, single replicate, 300 nM",114%
same,activity at 3 µM,"[1]; Homo sapiens, WI26VA4, read-out: Efficacy, % of control, single replicate, 3000 nM",39%
same,activity at 10 µM,"[1]; Homo sapiens, WI26VA4, read-out: Efficacy, % of control, single replicate, 10000 nM",10.1%
same,activity at 30 µM,"[1]; Homo sapiens, WI26VA4, read-out: Efficacy, % of control, single replicate, 30000 nM",3.03%
same,IC50,"[1]; Homo sapiens, WI26VA4, read-out: IC50 for collagen level",2000 nM
same,Collagen HillSlope (best-fit value),"[1]; log(inhibitor) vs. response, variable slope (four parameters)",-1.329
same,Collagen LogIC50 (best-fit value),[1]; [4],3.306
same,Relative (CC50)/(collagen IC50),"[1]; relative to HF, Fig 5E",3.01
same,TNT-luciferase % of control,"[2]; 2000 nM, Experiment #1, replicates, 2 µM",107.63 % of control and 97.97 % of control and 101.55 % of control
same,TNT-luciferase % of control,"[2]; 2000 nM, Experiment #2, replicates, 2 µM",104.64 % of control and 94.62 % of control and 88.50 % of control
same,"TNT-luciferase % of control, average",[2]; 2000 nM,99.15 % of control
same,TNT-luciferase % of control,"[2]; 6000 nM, Experiment #1, replicates, 6 µM",101.91 % of control and 104.41 % of control and 119.43 % of control
same,TNT-luciferase % of control,"[2]; 6000 nM, Experiment #2, replicates, 6 µM",96.85 % of control and 102.97 % of control and 104.64 % of control
same,"TNT-luciferase % of control, average",[2]; 6000 nM,105.03 % of control
same,TNT-luciferase % of control,"[2]; 20000 nM, Experiment #1, replicates, 20 µM",72.94 % of control (2×) and 59.71 % of control
same,TNT-luciferase % of control,"[2]; 20000 nM, Experiment #2, replicates, 20 µM",84.60 % of control (2×) and 85.71 % of control
same,"TNT-luciferase % of control, average",[2]; 20000 nM,76.75 % of control
same,TNT-luciferase % of control,"[2]; 60000 nM, Experiment #1, replicates, 60 µM",38.97 % of control and 46.84 % of control and 41.48 % of control
same,TNT-luciferase % of control,"[2]; 60000 nM, Experiment #2, replicates, 60 µM",51.21 % of control and 53.71 % of control and 53.43 % of control
same,"TNT-luciferase % of control, average",[2]; 60000 nM,47.61 % of control
same,TNT-luciferase % of control,"[2]; 200000 nM, Experiment #1, replicates, 200 µM",1.16 % of control and 1.03 % of control and 1.24 % of control
same,TNT-luciferase % of control,"[2]; 200000 nM, Experiment #2, replicates, 200 µM",6.68 % of control and 5.56 % of control and 5.68 % of control
same,"TNT-luciferase % of control, average",[2]; 200000 nM,3.56 % of control
same,TNT-luciferase % of control,"[2]; 600000 nM, Experiment #1, replicates, 600 µM",0.00561 % of control and 0.00168 % of control and 0.00107 % of control
same,TNT-luciferase % of control,"[2]; 600000 nM, Experiment #2, replicates, 600 µM",0.24 % of control and 0.28 % of control and 0.27 % of control
same,"TNT-luciferase % of control, average",[2]; 600000 nM,0.13 % of control
same,TNT-luciferase % of control,"[2]; 2000000 nM, Experiment #1, replicates, 2000 µM",0.00107 % of control and -0.00501 % of control and -0.00597 % of control
same,TNT-luciferase % of control,"[2]; 2000000 nM, Experiment #2, replicates, 2000 µM",0.0153 % of control and 0.00456 % of control and 0.00807 % of control
same,"TNT-luciferase % of control, average",[2]; 2000000 nM,0.00301 % of control
same,TNT-luciferase LogIC50 (best-fit value),[2]; [4],4.702
same,IC50,"[2]; log(inhibitor) vs. response, variable slope (four parameters), unit from head concentration (nM), read-out: TNT-luciferase IC50 (best-fit value)",50300 nM
same,IC50,"[3]; Homo sapiens, WI26VA4, read-out: IC50, collagen level",1490 nM
same,CC50/collagen IC50,[3]; PARS1 FA/EA/RL cells,7.88
same,Relative (CC50)/(collagen IC50),"[3]; PARS1 FA/EA/RL cells, relative to EV",0.63
same,"Collagen level, average",[3]; [5],96.80 % of control
same,"Collagen level, single replicates",[3]; [5],101.27 % of control and 106.03 % of control and 102.09 % of control and 97.52 % of control and 107.38 % of control and 87.30 % of control and 97.03 % of control and 100.22 % of control and 82.11 % of control and 93.95 % of control and 95.06 % of control and 91.64 % of control
same,"Collagen level, average",[3]; [6],91.15 % of control
same,"Collagen level, single replicates",[3]; [6],92.43 % of control and 98.06 % of control and 99.31 % of control and 91.83 % of control and 92.72 % of control and 85.46 % of control and 90.73 % of control (2×) and 82.66 % of control and 81.56 % of control and 88.43 % of control and 99.91 % of control
same,"Collagen level, average",[3]; [7],79.61 % of control
same,"Collagen level, single replicates",[3]; [7],87.41 % of control and 88.18 % of control and 78.49 % of control and 71.44 % of control and 76.98 % of control and 80.63 % of control and 81.90 % of control and 76.13 % of control and 73.84 % of control and 86.07 % of control and 78.20 % of control and 75.99 % of control
same,"Collagen level, average",[3]; [8],62.53 % of control
same,"Collagen level, single replicates",[3]; [8],72.91 % of control and 64.62 % of control and 69.50 % of control and 60.49 % of control and 52.43 % of control and 63.48 % of control and 72.89 % of control and 52.77 % of control and 57.64 % of control and 59.18 % of control and 66.74 % of control and 57.76 % of control
same,"Collagen level, average",[3]; [9],26.56 % of control
same,"Collagen level, single replicates",[3]; [9],25.97 % of control and 27.35 % of control and 25.49 % of control and 26.93 % of control and 30.39 % of control and 26.86 % of control and 25.02 % of control and 29.58 % of control and 24.14 % of control and 24.80 % of control and 25.63 % of control and 26.57 % of control
same,"Collagen level, average",[3]; [10],4.37 % of control
same,"Collagen level, single replicates",[3]; [10],4.38 % of control and 3.58 % of control and 3.17 % of control and 5.34 % of control and 4.53 % of control and 5.67 % of control and 3.18 % of control and 3.93 % of control and 4.88 % of control and 4.67 % of control and 4.47 % of control and 4.59 % of control
same,"Collagen level, average",[3]; [11],2.20 % of control
same,"Collagen level, single replicates",[3]; [11],2.07 % of control and 2.38 % of control and 2.98 % of control and 3.14 % of control and 2.40 % of control and 2.09 % of control and 1.49 % of control and 1.46 % of control and 1.88 % of control (2×) and 2.96 % of control and 1.71 % of control
same,"Collagen level, average",[3]; [12],1.94 % of control
same,"Collagen level, single replicates",[3]; [12],2.11 % of control and 2.24 % of control and 1.83 % of control and 2.90 % of control and 1.40 % of control and 1.89 % of control and 1.44 % of control and 1.33 % of control and 1.75 % of control and 1.90 % of control and 2.31 % of control and 2.15 % of control
same,"Collagen level, average",[3]; [13],1.36 % of control
same,"Collagen level, single replicates",[3]; [13],1.67 % of control and 0.92 % of control and 0.84 % of control and 1.94 % of control
same,"HillSlope, collagen level","[3]; WI-26 VA4 Flag-PARS1 FA/EA/RL, four-parameter fit",-1.331
same,"LogIC50, collagen level","[3]; WI-26 VA4 Flag-PARS1 FA/EA/RL, log of concentration in nM, four-parameter fit",3.174
